Values of other authors as cited in publication PMC7904743, “WIDOCK: a reactive docking protocol for virtual screening of covalent inhibitors” (Journal of Computer-Aided Molecular Design, 2021).
Where two headings read alike, the source gives them in different places.

What was measured:
OTUB2 = OTUB2 protein labeling; experimental actives if % labeling higher than 50%; cited from earlier work
[1] = thiol reactivity, cited from earlier work
NUDT7 = details: protein labeling at 200 μM; experimental actives if % labeling higher than 50%; cited from earlier work
[2] = natural log of average kinetic rate constant
[3] = natural log of average rate constant

Row | Structure (SMILES) | OTUB2 % labeling (OTUB2) [%] | ln(avg k) [1, 2] | ln(avg k) [1, 3] | NUDT7 % labeling (NUDT7) [%]
1 | Cc1cc(C)c(NC(=O)CCl)c(Cl)c1 [PCM-0102994, Cc1cc(C)c(NC(=O)CCl)c(Cl)c1] | 0 | -16.989 | -16.989 | 26
2 | O=C(CCl)N1CCN(C(=O)C2COc3ccccc3O2)CC1 (stereo not shown) [PCM-0102996, O=C(CCl)N1CCN(C(=O)C2COc3ccccc3O2)CC1] | 13 | -15.549 | -15.549 | 0
3 | O=C(CCl)NNC(=O)CC1CCS(=O)(=O)C1 (stereo not shown) [PCM-0102998, O=C(CCl)NNC(=O)CC1CCS(=O)(=O)C1] | 69 | -16.898 | -16.898 | 0
4 | O=C(CCl)Nc1ccc(F)cc1 [PCM-0103002, O=C(CCl)Nc1ccc(F)cc1] | 30 | -16.182 | -16.182 | 0
5 | O=C(CCl)Nc1ccc(F)cc1F [PCM-0103004, O=C(CCl)Nc1ccc(F)cc1F] | 26 | -15.968 | -15.968 | 0
6 | O=C(CCl)N1CCN(Cc2ccco2)CC1 [PCM-0103006, O=C(CCl)N1CCN(Cc2ccco2)CC1] | 0 | -15.615 | -15.615 | 0
7 | O=C1CN(C(=O)CCl)CCN1 [PCM-0103008, O=C1CN(C(=O)CCl)CCN1] | 0 | -15.775 | -15.775 | 0
8 | CC(=O)c1cc2c(cc1NC(=O)CCl)OCO2 [PCM-0103010, CC(=O)c1cc2c(cc1NC(=O)CCl)OCO2] | 0 | -17.333 | -17.333 | 14
9 | O=C(CCl)NCC#Cc1cccc(C(F)(F)F)c1 [PCM-0103011, O=C(CCl)NCC#Cc1cccc(C(F)(F)F)c1] | 84 | -16.650 | -16.650 | 0
10 | NS(=O)(=O)c1ccc(Cl)c(NC(=O)CCl)c1 [PCM-0103012, NS(=O)(=O)c1ccc(Cl)c(NC(=O)CCl)c1] | 10 | -15.947 | -15.947 | 0
11 | Cc1ccccc1C(=O)NC1CCN(C(=O)CCl)CC1 [PCM-0103013, Cc1ccccc1C(=O)NC1CCN(C(=O)CCl)CC1] | 0 | -15.378 | -15.378 | 0
12 | CC(C)C(=O)NNC(=O)CCl [PCM-0103014, CC(C)C(=O)NNC(=O)CCl] | 9 | -17.522 | -17.522 | 0
13 | O=C(CCl)N1CCN(c2ccccc2[N+](=O)[O-])CC1 [PCM-0103016, O=C(CCl)N1CCN(c2ccccc2[N+](=O)[O-])CC1] | 9 | -15.523 | -15.523 | 27
14 | Cc1ccc(CN(C)C(=O)CCl)cc1 [PCM-0103017, Cc1ccc(CN(C)C(=O)CCl)cc1] | 0 | -16.138 | -16.138 | 9
15 | CS(=O)(=O)c1ccc(F)c(NC(=O)CCl)c1 [PCM-0103018, CS(=O)(=O)c1ccc(F)c(NC(=O)CCl)c1] | 16 | -15.950 | -15.950 | 0
16 | CC1CCC(N(C)C(=O)CCl)CC1 (stereo not shown) [PCM-0103019, CC1CCC(N(C)C(=O)CCl)CC1] | 0 | -16.049 | -16.049 | 0
17 | O=C(CCl)NCC1Cc2ccccc2O1 (stereo not shown) [PCM-0103020, O=C(CCl)NCC1Cc2ccccc2O1] | 0 | -17.072 | -17.072 | 0
18 | O=C(CCl)N1CCN(c2ncc(Cl)cc2Cl)CC1 [PCM-0103022, O=C(CCl)N1CCN(c2ncc(Cl)cc2Cl)CC1] | 0 | -15.906 | -15.906 | 22
19 | CC(C)N(C(=O)CCl)C(C)C [PCM-0103023, CC(C)N(C(=O)CCl)C(C)C] | 0 | -17.155 | -17.155 | 0
20 | O=C(CCl)N1CCc2sccc2C1c1ccccc1 (stereo not shown) [PCM-0103024, O=C(CCl)N1CCc2sccc2C1c1ccccc1] | 0 | -15.442 | -15.442 | 69
21 | CC1CCCCC1N(C)C(=O)CCl (stereo not shown) [PCM-0103026, CC1CCCCC1N(C)C(=O)CCl] | 0 | -15.777 | -15.777 | 12
22 | COC(=O)c1ccc(C)c(NC(=O)CCl)c1 [PCM-0103027, COC(=O)c1ccc(C)c(NC(=O)CCl)c1] | 0 | -16.113 | -16.113 | 5

Row | Structure (SMILES) | OTUB2 % labeling (OTUB2) [%] | ln(avg k) [1, 2] | ln(avg k) [1, 3] | NUDT7 % labeling (NUDT7) [%]
23 | Cc1ccc(NC(=O)CCl)c(F)c1 [PCM-0103028, Cc1ccc(NC(=O)CCl)c(F)c1] | 14 | -16.314 | -16.314 | 0
24 | CC(NC(=O)CCl)c1ccc2c(c1)OCO2 (stereo not shown) [PCM-0103030, CC(NC(=O)CCl)c1ccc2c(c1)OCO2] | 28 | -16.554 | -16.554 | 12
25 | Cc1ccc2nc(NC(=O)CCl)sc2c1 [PCM-0103031, Cc1ccc2nc(NC(=O)CCl)sc2c1] | 18 | -15.473 | -15.473 | 88
26 | O=C(CCl)N1CCN(c2cccc(Cl)c2)CC1 [PCM-0103032, O=C(CCl)N1CCN(c2cccc(Cl)c2)CC1] | 21 | -15.657 | -15.657 | 22
27 | N#Cc1cccc(NC(=O)CCl)c1 [PCM-0103033, N#Cc1cccc(NC(=O)CCl)c1] | 23 | -15.647 | -15.647 | 0
28 | CC(NC(=O)CCl)c1ccc(F)cc1F (stereo not shown) [PCM-0103035, CC(NC(=O)CCl)c1ccc(F)cc1F] | 34 | -15.881 | -15.881 | 15
29 | O=C(CCl)NC(=O)NCC(F)(F)F [PCM-0103037, O=C(CCl)NC(=O)NCC(F)(F)F] | 30 | -15.772 | -15.772 | 0
30 | O=C(CCl)N1CC=C(c2ccccc2)CC1 [PCM-0103038, O=C(CCl)N1CC=C(c2ccccc2)CC1] | 9 | -16.846 | -16.846 | 0
31 | O=C(CCl)Nc1ccc(F)cc1Cl [PCM-0103040, O=C(CCl)Nc1ccc(F)cc1Cl] | 0 | -16.348 | -16.348 | 0
32 | COc1ccc(C)cc1NC(=O)CCl [PCM-0103043, COc1ccc(C)cc1NC(=O)CCl] | 27 | -16.699 | -16.699 | 6
33 | O=C(CCl)NC1CCOCC1 [PCM-0103045, O=C(CCl)NC1CCOCC1] | 0 | -16.016 | -16.016 | 0
34 | CC(C)(C)n1ncc2c1CCCC2NC(=O)CCl (stereo not shown) [PCM-0103046, CC(C)(C)n1ncc2c1CCCC2NC(=O)CCl] | 36 | -16.467 | -16.467 | 0
35 | O=C(CCl)NCc1cccc(F)c1 [PCM-0103047, O=C(CCl)NCc1cccc(F)c1] | 43 | -16.636 | -16.636 | 0
36 | COC(=O)c1cccc(NC(=O)CCl)c1 [PCM-0103048, COC(=O)c1cccc(NC(=O)CCl)c1] | 87 | -15.795 | -15.795 | 0
37 | O=C(CCl)NCc1cc(Br)cs1 [PCM-0103050, O=C(CCl)NCc1cc(Br)cs1] | 84 | -16.422 | -16.422 | 13
38 | CCC1c2ccsc2CCN1C(=O)CCl (stereo not shown) [PCM-0103051, CCC1c2ccsc2CCN1C(=O)CCl] | 0 | -15.594 | -15.594 | 30
39 | Cc1nc(-c2ccc(C)c(NC(=O)CCl)c2)n[nH]1 [PCM-0103052, Cc1nc(-c2ccc(C)c(NC(=O)CCl)c2)n[nH]1] | 9 | -16.586 | -16.586 | 12
40 | O=C(CCl)NC1CCN(C2CC2)CC1 [PCM-0103055, O=C(CCl)NC1CCN(C2CC2)CC1] | 0 | -16.125 | -16.125 | 0
41 | Cc1cc(NC(=O)CCl)n(C(C)(C)C)n1 [PCM-0103057, Cc1cc(NC(=O)CCl)n(C(C)(C)C)n1] | 0 | -16.148 | -16.148 | 0
42 | CC1(C)CCCN1C(=O)CCl [PCM-0103060, CC1(C)CCCN1C(=O)CCl] | 0 | -15.914 | -15.914 | 0
43 | O=C(CCl)NNC(=O)C1CCC1 [PCM-0103061, O=C(CCl)NNC(=O)C1CCC1] | 14 | -15.962 | -15.962 | 28
